Laboratory results from the NIST ThermoML archive (doi:10.1016/j.jct.2017.03.006).

Assay: xn = mol fraction of the nth substance listed
Conditions: 273.15 K, Liquid, Vibrating tube method

Cc1ccc(C)c(C)c1 [1,2,4-trimethylbenzene] + CCC(C)O
mass density [kg/m3]
Conditions | x2 = 0 | x2 = 0.1 | x2 = 0.1989 | x2 = 0.3011 | x2 = 0.4002 | x2 = 0.5001 | x2 = 0.5997 | x2 = 0.6999 | x2 = 0.7999 | x2 = 0.9
100 kPa | 891.7 | 885.9 | 880.3 | 874.4 | 868.5 | 862.2 | 855.4 | 847.7 | 840.4 | 831.5
1000 kPa | 892.3 | 886.3 | 880.7 | 874.7 | 868.8 | 862.5 | 855.9 | 848.6 | 840.9 | 832.2
2000 kPa | 892.9 | 886.9 | 881.3 | 875.4 | 869.5 | 863.2 | 856.6 | 849.3 | 841.5 | 832.9
5000 kPa | 894.6 | 888.8 | 883.2 | 877.3 | 871.4 | 865.2 | 858.5 | 851.3 | 843.5 | 835
10000 kPa | 897.4 | 891.8 | 886.2 | 880.4 | 874.5 | 868.3 | 861.7 | 854.5 | 846.8 | 838.2
15000 kPa | 900.2 | 894.6 | 889.1 | 883.3 | 877.4 | 871.3 | 864.7 | 857.6 | 849.9 | 841.4
20000 kPa | 902.8 | 897.4 | 891.9 | 886.1 | 880.4 | 874.2 | 867.6 | 860.5 | 852.8 | 844.4
30000 kPa | 908 | 902.7 | 897.3 | 891.6 | 885.8 | 879.7 | 873.3 | 866.2 | 858.6 | 850.1
40000 kPa | 912.9 | 907.8 | 902.4 | 896.7 | 891.1 | 885 | 878.5 | 871.5 | 863.9 | 855.6
50000 kPa | 917.5 | 912.6 | 907.2 | 901.6 | 896 | 890 | 883.6 | 876.6 | 869 | 860.7
60000 kPa | 921.9 | – | – | – | – | – | – | – | – | –
